Measurements from ChEMBL document CHEMBL5120841, “Discovery of novel pleuromutilin derivatives as potent antibacterial agents” (2022).
In brackets after ≈: the same amount, converted by molar mass. Activity calls are given as the source filed them. The rule behind the calls is not given here.

Experiments:
Staphylococcus aureus [1] = test: Antibacterial activity against methicillin-resistant Staphylococcus aureus BNCC 337371 infected in Kunming mouse liver assessed as reduction on bacterial growth at 40 mg/kg,ip dosed measured after 7 days by 10-fold dilution method; assay type: functional, organism-based; details: time 7.0 day
Escherichia coli = test: Antibacterial activity against Escherichia coli CICC 10389 assessed as bacterial growth inhibition incubated for 18 to 24 hrs by microtiter dilution method; assay type: functional; details: time 18-24 hrs
Bacillus subtilis = test: Antibacterial activity against Bacillus subtilis assessed as bacterial growth inhibition incubated for 18 to 24 hrs by microtiter dilution method; assay type: functional; details: time 18-24 hrs
Staphylococcus aureus [2] = test: Antibacterial activity against methicillin-resistant Staphylococcus aureus BNCC 337371 infected in Kunming mouse kidney assessed as reduction on bacterial growth at 40 mg/kg,ip dosed measured after 7 days by 10-fold dilution method; assay type: functional; details: time 7 day
Staphylococcus aureus [3] = test: Antibacterial activity against methicillin-resistant Staphylococcus aureus BNCC 337371 infected in Kunming mouse lung assessed as reduction on lymphocyte infiltration at 40 mg/kg,ip measured after 7 days by hematoxylin and eosin staining based light microscopic analysis; assay type: functional, organism-based; details: time 7.0 day
Staphylococcus aureus [4] = test: Antibacterial activity against methicillin-resistant Staphylococcus aureus BNCC 337371 infected in Kunming mouse lung assessed as reduction on neutrophil infiltration at 40 mg/kg,ip measured after 7 days by hematoxylin and eosin staining based light microscopic analysis; assay type: functional, organism-based; details: time 7.0 day
Staphylococcus aureus [5] = test: Antibacterial activity against methicillin-resistant Staphylococcus aureus BNCC 337371 infected in Kunming mouse lung assessed as reduction on lymphocyte infiltration at 15 mg/kg,ip measured after 7 days by hematoxylin and eosin staining based light microscopic analysis; assay type: functional, organism-based; details: time 7.0 day
Staphylococcus aureus [6] = test: Antibacterial activity against methicillin-resistant Staphylococcus aureus BNCC 337371 infected in Kunming mouse lung assessed as reduction on bacterial growth at 15 mg/kg,ip dosed measured after 7 days by 10-fold dilution method; assay type: functional; details: time 7 day
Staphylococcus aureus [7] = test: Antibacterial activity against methicillin-resistant Staphylococcus aureus BNCC 337371 assessed as reduction on bacterial count at 6X MIC incubated for 24 hrs by time killing assay; assay type: functional
Enterococcus faecalis = test: Antibacterial activity against Enterococcus faecalis assessed as bacterial growth inhibition incubated for 18 to 24 hrs by microtiter dilution method; assay type: functional; details: time 18-24 hrs
Staphylococcus aureus [8] = test: Antibacterial activity against methicillin-resistant Staphylococcus aureus BNCC 337371 infected in Kunming mouse lung assessed as reduction on alveolar diaphragm thickening at 40 mg/kg,ip measured after 7 days by hematoxylin and eosin staining based light microscopic analysis; assay type: functional, organism-based; details: time 7.0 day
Staphylococcus aureus [9] = test: Antibacterial activity against methicillin-resistant Staphylococcus aureus BNCC 337371 infected in Kunming mouse assessed as reduction on bacterial growth by measuring survival rate at ip dosed measured after 7 days by Bliss method; assay type: functional; details: BNCC 337371, 168 h, time 7 day
Staphylococcus aureus [10] = test: Antibacterial activity against methicillin-resistant Staphylococcus aureus BNCC 337371 infected in Kunming mouse lung assessed as reduction on bacterial growth at 40 mg/kg,ip dosed measured after 7 days by 10-fold dilution method; assay type: functional; details: time 7 day
Staphylococcus aureus [11] = test: Antibacterial activity against methicillin-resistant Staphylococcus aureus BNCC 337371 assessed as bacterial growth inhibition incubated for 18 to 24 hrs by microtiter dilution method; assay type: functional; details: time 18-24 hrs
Staphylococcus aureus [12] = test: Antibacterial activity against Staphylococcus aureus ATCC 25923 assessed as reduction on bacterial count at 6X MIC incubated for 24 hrs by time killing assay; assay type: functional
Staphylococcus aureus [13] = test: Antibacterial activity against Staphylococcus aureus ATCC 25923 assessed as bacterial growth inhibition incubated for 18 to 24 hrs by microtiter dilution method; assay type: functional; details: time 18-24 hrs
Staphylococcus aureus [14] = test: Antibacterial activity against methicillin-resistant Staphylococcus aureus BNCC 337371 infected in Kunming mouse lung assessed as reduction on alveolar diaphragm thickening at 15 mg/kg,ip measured after 7 days by hematoxylin and eosin staining based light microscopic analysis; assay type: functional, organism-based; details: time 7.0 day
Staphylococcus aureus [15] = test: Antibacterial activity against methicillin-resistant Staphylococcus aureus BNCC 337371 infected in Kunming mouse lung assessed as reduction on neutrophil infiltration at 15 mg/kg,ip measured after 7 days by hematoxylin and eosin staining based light microscopic analysis; assay type: functional, organism-based; details: time 7.0 day
[16] = system: Staphylococcus epidermidis; test: Antibacterial activity against methicillin-resistant Staphylococcus epidermidis ATCC 51625 assessed as bacterial growth inhibition incubated for 18 to 24 hrs by microtiter dilution method; assay type: functional; details: time 18-24 hrs

With C=C[C@]1(C)C[C@@H](OC(=O)CSc2nc(C)c(C(=O)OCC)c(C)n2)[C@]2(C)[C@H](C)CC[C@]3(CCC(=O)[C@H]32)[C@@H](C)[C@@H]1O the Activity (Staphylococcus aureus [1]) was “Active”, the MIC (Escherichia coli) was > 16 µg/mL and the MIC (Bacillus subtilis) was 4 µg/mL (≈ 6.98 µM). The Activity (Staphylococcus aureus [2]) was 3.24 log10CFU/ml, the Activity (Staphylococcus aureus [3]) was “Active” and the Activity (Staphylococcus aureus [4]) was “Active”. For the same compound, the Activity (Staphylococcus aureus [5]) was “Active”, the Activity (Staphylococcus aureus [6]) was 2.97 log10CFU/ml and the Activity (Staphylococcus aureus [7]) was 2.44 log10CFU/ml. The MIC (Enterococcus faecalis) was > 16 µg/mL, the Activity (Staphylococcus aureus [8]) was “Active” and the ED50 (Staphylococcus aureus [9]) was 16.1 mg/kg. The Activity (Staphylococcus aureus [10]) was 4.95 log10CFU/ml, the MIC (Staphylococcus aureus [11]) was ≤ 0.0156 µg/mL and the Activity (Staphylococcus aureus [12]) was 3.62 log10CFU/ml. The MIC (Staphylococcus aureus [13]) was ≤ 0.0156 µg/mL, the Activity (Staphylococcus aureus [14]) was “Active” and the Activity (Staphylococcus aureus [15]) was “Active”. For the same compound, the MIC [16] was ≤ 0.0156 µg/mL.
